Source: article PMC11477877, “Carbohydrate-Binding Mechanism of the Coagulant Lectin from Moringa oleifera Seeds (cMoL) Is Related to the Dimeric Protein Structure” (Molecules, 2024)

Target: T1, cMoL (coagulant lectin from Moringa oleifera seeds) (Moringa oleifera, UniProt Z9EIH6G9R5)
T1 construct: native, purified from seeds (ammonium sulfate, guar gel column); 101 residues; homodimer
T1 sequence (Z9EIH6G9R5 1-101): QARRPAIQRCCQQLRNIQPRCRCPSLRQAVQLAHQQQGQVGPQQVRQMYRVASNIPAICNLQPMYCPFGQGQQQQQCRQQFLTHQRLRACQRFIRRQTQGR
Test: intrinsic fluorescence quenching, modified Stern-Volmer
Format: binding
Details: 298 K; water; excitation 280 nm; Hill h ~2 (dimer)
Excerpt: intrinsic fluorescence quenching, modified Stern-Volmer on cMoL (coagulant lectin from Moringa oleifera seeds)

Ka (10^2 M^-1) | SMILES
0.1239 ± 0.00004 10^2 M^-1 | OC[C@H]1OC(O)[C@H](O)[C@@H](O)[C@H]1O (some centres unmarked) [galactose]
0.2979 ± 0.00007 10^2 M^-1 | OC[C@H]1OC(O)[C@H](O)[C@@H](O)[C@@H]1O (some centres unmarked) [glucose]
